The source of these data is patent US20220402903A1, “ISOXAZOLINE COMPOUND WITH OPTICAL ACTIVITY AND USE” (SHENYANG SINOCHEM AGROCHEMICALS R&D CO., LTD., priority 2019, published 2022).

Holding throughout (experiment): Greenhouse herbicidal activity, post-emergence stem and leaf spray
Format in all cases: in vivo

One assay concerns Abutilon theophrasti. The conditions noted are these: for Control effect on Abutilon theophrasti: post-emergence, dose 4 g a.i./hm^2, visual, 0 = no control effect, 100% = weeds completely killed. The text has this: (§1) The test method of the herbicidal activity of the compound in the present invention is as follows:
(§2) Quantitative grass weed (Echinochloa crusgalli and Setaria viridis) and broad-leaved weed (Abutilon theophrasti and Zinnia elegans) seeds were sown in paper cups having a diameter of 7 cm and containing nutrient soil, after sowing, the seeds were covered with 1 cm of soil, the soil was pressed and watered, and then the seeds were cultivated in a greenhouse according to a conventional method. The grass weeds grew to 2-3 leaf stages, the broad-leaved weeds grew to 2-4 leaf stages, stem and leaves were sprayed. Before emergence, the soil was sprayed within 24 hours after sowing. According to the design dose of the test, spray treatment was carried out on a track-type crop sprayer (designed and produced by British Engineer Research Ltd.) (spray pressure is 1.95 kg/cm^2, spray volume is 500 L/hm^2 and track speed is 1.48 km/h). The test was repeated for three times. The test material was treated and then placed in an operation hall. The medicinal liquid was naturally dried in the shade, and then was placed in a greenhouse and managed according to the conventional method. The response of the weeds to the test compound was observed and recorded. After treatment, the control effects of the test compound on the weeds were visually inspected regularly.
(§3) The grading standards of the control effects: 0 represents no control effect and 100% represents that the weeds are completely killed or greatly controlled.

In the next assay the test system is Zinnia elegans. The conditions noted are these: for Control effect on Zinnia elegans: post-emergence, dose 4 g a.i./hm^2, visual, 0 = no control effect, 100% = weeds completely killed.
Description: as §1, §2, §3

The test system of a further assay is Echinochloa crusgalli. The conditions noted are these: for Control effect on Echinochloa crusgalli: post-emergence, visual, 0 = no control effect, 100% = weeds completely killed.
Description: as §1, §2, §3

Another assay concerns Setaria viridis. The conditions noted are these: for Control effect on Setaria viridis: post-emergence, visual, 0 = no control effect, 100% = weeds completely killed.
Description: as §1, §2, §3

Setting [1] is: post-emergence treatment, dose 4-8 g a.i./hm^2.

With `CCOC(=O)C1(C)CC(c2cc(-n3c(=O)cc(C(F)(F)F)n(C)c3=O)c(F)cc2Cl)=NO1` (stereo not shown) [CN105753853 Compound 6, reference compound], in the assay on Abutilon theophrasti, the “Control effect on Abutilon theophrasti” value worked out at 60%. The “Control effect on Zinnia elegans” value in the assay with Zinnia elegans is reported as 90%. Besides, the “Control effect on Echinochloa crusgalli” value in the assay with Echinochloa crusgalli (dose 4 g a.i./hm^2) was found to be 45%; in the assay on Echinochloa crusgalli (dose 8 g a.i./hm^2) it was 50%. Also, the “Control effect on Setaria viridis” value in the assay on Setaria viridis (dose 4 g a.i./hm^2) is on record as 25%; with Setaria viridis (dose 8 g a.i./hm^2), 55%.

Consider `CCOC(=O)[C@]1(C)CC(c2cc(-n3c(=O)cc(C(F)(F)F)n(C)c3=O)c(F)cc2Cl)=NO1` [Compound 3], for which, in the assay on Abutilon theophrasti (setting [1]), the “Herbicidal activity on Abutilon theophrasti (in words)” value is reported as “high herbicidal activity”. In addition, the “Control effect on Abutilon theophrasti” value with Abutilon theophrasti stood at 90%. For the same molecule, the “Herbicidal activity on Zinnia elegans (in words)” value in the assay on Zinnia elegans (setting [1]) is given as “high herbicidal activity”. The “Control effect on Zinnia elegans” value with Zinnia elegans came to 100%. The “Herbicidal activity on Echinochloa crusgalli (in words)” value in the assay on Echinochloa crusgalli (setting [1]) is “high herbicidal activity”. For the same molecule, the “Control effect on Echinochloa crusgalli” value turned out to be 90% with Echinochloa crusgalli (dose 4 g a.i./hm^2) and 98% in the assay with Echinochloa crusgalli (dose 8 g a.i./hm^2). Further, the “Herbicidal activity on Setaria viridi (in words)” value in the assay on Setaria viridis (setting [1]) is “high herbicidal activity”. Also, the “Control effect on Setaria viridis” value came out at 75% in the assay on Setaria viridis (dose 4 g a.i./hm^2) and 85% with Setaria viridis (dose 8 g a.i./hm^2).
